Measurements from patent US20200239530A1, “COMPOUNDS AND METHODS OF MODULATING PROTEIN DEGRADATION” (Vividion Therapeutics, Inc., priority 2017, published 2020).
Blank lines part the entries; values can stand above or below the compound they belong to.

Tests used:
Assay type in all cases: binding
[1] = biological target: T1, cysteine residue illustrated in Table 1A or Table 2A (Homo sapiens, UniProt Q8N9I9); experiment: Competitive cysteine profiling of cell lysate with desthiobiotin iodoacetamide probe (96-well sample prep); conditions: UniProt Q8N9I9; 100 uM
T1 construct: Cells were resuspended in cold PBS on ice and sonicated with a probe sonicator to achieve lysis; endogenous in cells
Protocol: (§1) In some embodiments, the solution sample (e.g., cell sample, cell lysate sample, or comprising isolated proteins) is incubated with a compound of Formula (I) for analysis of protein-probe interactions. In some instances, the solution sample (e.g., cell sample, cell lysate sample, or comprising isolated proteins) is further incubated in the presence of an additional compound probe prior to addition of the compound of Formula (I). […] In such instances, the solution sample is incubated with a probe and a ligand for competitive protein profiling analysis.
(§2) The following 96-well sample prep protocol was used for sample preparation.
(§3) Cells were resuspended in cold PBS on ice and sonicated with a probe sonicator to achieve lysis. 200 μL of lysate containing 5 mg/ml proteome was treated with 2 μL of 100× compound stock in a 2-mL deep-well plate. The treated lysate was subsequently incubate at 25° C. for 1 hr with shaking at 600 rpm. The treated lysate was further incubated with 2 μL of 10 mM desthiobiotin iodoacetamide probe at 25° C. for 1 hr with shaking at 600 rpm. Next, the lysate was further treat with 20 μL of solution of PBS containing 11 mM MgSO4 and 2.5% Turbonuclease stock and incubated at 25° C. for 20 minutes with shaking at 600 rpm. 1.7 mL ice-cold acetone was added to each well and incubated at −20° C. for 2 hr, followed by max speed (4200 rpm) spin for 45 min. Acetone was then decanted and the plates were blotted to remove acetone. The plates were then dried in open air for 20 minutes. After drying, the plates were then covered with foil seal and stored at −80° C. overnight.
(§4) The next day, samples were re-suspended in 90 μL of solution of 9M urea, 50 mM ammonium bicarbonate and 10 mM DTT by incubating at 65C for 20 min with shaking at 1500 rpm. Next, samples were cooled to 37° C. and then 10 μL of 500 mM iodoacetamide solution (92.48 mg/ml) was added. The samples were then incubated at 37° C. for 30 min with shaking at 600 rpm.
(§5) ZEBA desalting plates were equilibrated 4 times using 250 μL of 2M urea, 50 mM ammonium bicarbonate solution followed by centrifugation at 1500 rpm for 2 minutes. After equilibration was complete, samples were applied to ZEBA desalting plate and spin at 1500 rpm for 2 min on top of 1 mL 96-well deep-well collection plate to buffer exchange samples. 4 μL of solution containing 25 mM CaCl2 and 0.25 mg/mL trypsin was added to the plate and the plate was then incubated at 37° C. for 2 hrs with shaking at 600 rpm. 300 μL of solution containing 5% high-capacity streptavidin agarose slurry in 25 mM Tris-HCl pH 7.5, 150 mM NaCl, and 0.1% NP-40 then added. The plate was incubated at 25° C. for 2 hrs with shaking at 600 rpm. Samples were transferred to 25 μm filter plate and spin at 1000 rpm for 2 min. Samples were then washed 3 times with 0.75 mL of wash buffer (25 mM Tris-HCl pH 7.5, 150 mM NaCl, and 0.1% NP-40) followed by washing 3 times with 0.75 mL PBS, and then 4 times with 0.75 mL water. After the washing step, samples were eluted into polypropylene 96-well plate by addition of 250 µL of 50% MeCN/water, 0.1% formic acid and allowed to gravity drip for 10 min, followed by centrifugation at 1000 rpm for 2 min. Speedvac was used to dry the plates at about 45° C. for […]. Then the plates were covered with foil seal and stored at −20° C.
(§6) Samples were resuspended by addition of 20 μl of 12.5% ACN, 0.1% formic acid solution, covered with foil seal, and incubated at 42° C. for 10 minutes with shaking at 600 rpm. Then add 30 μL of 0.1% formic acid solution was added and the plate was covered and incubated at 42° C. for 10 minutes with shaking at 600 rpm. Seal plate was then sealed with a 96-well silicon mat for analysis.

[2] = biological target: T2, cysteine residue illustrated in Table 1A or Table 2A (Homo sapiens, UniProt Q8WV16); experiment: as above; conditions: UniProt Q8WV16; 100 uM
T2 construct: Cells were resuspended in cold PBS on ice and sonicated with a probe sonicator to achieve lysis; endogenous in cells
Protocol: as §1, §2, §3, §4, §5, §6

[3] = biological target: T3, cysteine residue illustrated in Table 1A or Table 2A (Homo sapiens, UniProt Q86UW9); experiment: as above; conditions: UniProt Q86UW9; 100 uM
T3 construct: Cells were resuspended in cold PBS on ice and sonicated with a probe sonicator to achieve lysis; endogenous in cells
Protocol: as §1, §2, §3, §4, §5, §6

UniProt Q969V5 = biological target: T4, UniProt Q969V5 (Homo sapiens, UniProt Q969V5); experiment: Cysteine liganding, probe competition; conditions: for percent inhibition: 100 uM
T4 construct: Cells were resuspended in cold PBS on ice and sonicated with a probe sonicator to achieve lysis; endogenous in cells
T4 sequence (Q969V5 1-352): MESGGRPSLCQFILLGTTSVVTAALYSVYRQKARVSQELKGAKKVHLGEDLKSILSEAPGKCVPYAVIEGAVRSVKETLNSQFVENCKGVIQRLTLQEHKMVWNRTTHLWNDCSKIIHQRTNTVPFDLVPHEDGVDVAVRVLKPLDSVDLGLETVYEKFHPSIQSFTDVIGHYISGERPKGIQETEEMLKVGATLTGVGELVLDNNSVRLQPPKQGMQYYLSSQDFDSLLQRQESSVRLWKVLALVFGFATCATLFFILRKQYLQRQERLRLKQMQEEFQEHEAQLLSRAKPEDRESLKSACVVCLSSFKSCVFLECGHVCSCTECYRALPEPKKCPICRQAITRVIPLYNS
Source text: as §2

[4] = biological target: T5, cysteine residue illustrated in Table 1A or Table 2A (Homo sapiens, UniProt Q8N3P4); experiment: Competitive cysteine profiling of cell lysate with desthiobiotin iodoacetamide probe (96-well sample prep); conditions: UniProt Q8N3P4
T5 construct: Cells were resuspended in cold PBS on ice and sonicated with a probe sonicator to achieve lysis; endogenous in cells
Protocol: as §1, §2, §3, §4, §5, §6

[5] = biological target: T6, cysteine residue illustrated in Table 1A or Table 2A (Homo sapiens, UniProt Q8TEB1); experiment: as above; conditions: UniProt Q8TEB1; 100 uM
T6 construct: Cells were resuspended in cold PBS on ice and sonicated with a probe sonicator to achieve lysis; endogenous in cells
Protocol: as §1, §2, §3, §4, §5, §6

[6] = biological target: T7, cysteine residue illustrated in Table 1A or Table 2A (Homo sapiens, UniProt Q6P1J9); experiment: as above; conditions: UniProt Q6P1J9; 100 uM
T7 construct: Cells were resuspended in cold PBS on ice and sonicated with a probe sonicator to achieve lysis; endogenous in cells
Protocol: as §1, §2, §3, §4, §5, §6

[7] = biological target: T8, cysteine residue illustrated in Table 1A or Table 2A (Homo sapiens, UniProt O60826); experiment: as above; conditions: UniProt O60826; 100 uM
T8 construct: Cells were resuspended in cold PBS on ice and sonicated with a probe sonicator to achieve lysis; endogenous in cells
Protocol: as §1, §2, §3, §4, §5, §6

[8] = biological target: T9, cysteine residue illustrated in Table 1A or Table 2A (Homo sapiens, UniProt Q66K64); experiment: as above; conditions: UniProt Q66K64; 100 uM
T9 construct: Cells were resuspended in cold PBS on ice and sonicated with a probe sonicator to achieve lysis; endogenous in cells
Protocol: as §1, §2, §3, §4, §5, §6

UniProt P78317 = biological target: T10, UniProt P78317 (Homo sapiens, UniProt P78317); experiment: Cysteine liganding, probe competition
T10 construct: 200 μL of lysate containing 5 mg/ml proteome was treated with 2 μL of 100× compound stock; endogenous in cells
Source text: as §2

[9] = biological target: cysteine residue illustrated in Table 1A or Table 2A (Homo sapiens, UniProt Q13616); experiment: Competitive cysteine profiling of cell lysate with desthiobiotin iodoacetamide probe (96-well sample prep); parameters: endogenous in cells; conditions: UniProt Q13616; 100 uM
Protocol: as §1, §2
as §3, with “Acetone was then decanted and the plates were blotted to remove acetone. The plates were then dried in open air for 20 minutes. After drying, the plates were then covered with foil seal and stored at −80° C. overnight.” left out

SMILES: COc1ccc2c(c1)CCCN2C(=O)CCl [KB02]
- KB02_100 uM_percent_inhibition [1]: 8%
- KB02_100 uM_percent_inhibition [2]: 16%
- KB02_100 uM_percent_inhibition [3]: 28%
- percent inhibition (UniProt Q969V5): 35%
- inhibition at 100 µM (UniProt Q969V5; read-out: percent inhibition): 25%

- KB05_100 uM_percent_inhibition ([4]; KB05 100 uM): 55%
- KB05_100 uM_percent_inhibition [5]: 38%
- KB05_100 uM_percent_inhibition [6]: 33%
- KB05_100 uM_percent_inhibition [7]: 22%
- KB05_100 uM_percent_inhibition [2]: 26%
- KB05_100 uM_percent_inhibition [8]: 11%
- inhibition at 500 µM (UniProt P78317; 500 uM, read-out: percent_inhibition): 24%
- KB05_100 uM_percent_inhibition [9]: 4%
SMILES: C=CC(=O)N(c1ccccc1)c1ccc(Br)cc1 [KB05]

SMILES: O=C(CCl)Nc1cc(C(F)(F)F)cc(C(F)(F)F)c1 [KBO3]
- KB03_100 uM_percent_inhibition ([4]; KB03 100 uM): 44%
- KB03_100 uM_percent_inhibition [5]: 43%
- KB03_100 uM_percent_inhibition [6]: 24%
- KB03_100 uM_percent_inhibition [1]: 10%
- KB03_100 uM_percent_inhibition [7]: 7%
- KB03_100 uM_percent_inhibition [3]: 8%
- KB03_100 uM_percent_inhibition [8]: 31%
- percent_inhibition (UniProt P78317; 100 uM): 16%
- percent inhibition (UniProt Q969V5): 38%
- KB03_100 uM_percent_inhibition [9]: 31%
